Type in all cases: cell-based
In test [1] the target is T1, SMARCA2 (Homo sapiens, UniProt P51531). Kind of test: MSD SMARCA2 degradation in A549 cell line. As to conditions: 24 h; for Dmax: A549, A549 cells; for DC50: A549 cells, read-out: SMARCA2 MSD A549 degradation 24 h: Average external-Abs DC50. Set-up: endogenous in cells. On the procedure:
Example 53. MSD SMARCA2 Degradation in A549 Cell Line
Cells were seeded into 96-well plates (A549 cells: 2×10^4 cells/well/100 ul media) abd incubated overnight. The next day, 200 nl compound were added into the intermediate plate with Echo (Labcyte 550) from source plate containing a 3-fold serial dilution from top concentration of 1 mM. The culture medium was changed with 80 ul of fresh medium and 80 ul of 2× compound solution was added into the well to make a final concentration of 1000 nM, 333.3 nM, 111.1 nM, 37.04 nM, 12.35 nM, 4.115 nM, 1.372 nM, 0.457 nM, 0.152 nM and 0 nM (DMSO). The wells were mixed and then incubated for 24 hours. The media was aspirated from the cultures and 60 ul pre-chilled PIPA lysis buffer (Boston BioProducts BP-115D) with protease/phosphatase inhibitor (Roche 05892791001/Roche 04906837001) was added into the well to lyze the cells for 20 minutes at 4° C. The MSD plate (L15XA) was coated with 40 ul cell lysate and incubated at 4° C. overnight. The next day, the plate was washed three times with TBST (CST #9997S), 150 ul/well. The MSD plates was blocked with 150 ul blocking buffer per well and shaked for 1 hr at R^†, 600 rpm. The blocking buffer was 3% Blocker A (MSD, R93BA-4) in TBST. The MSD plate was washed three times with 150 ul/well of TBST and 25 ul/well of detection antibody (Rabbit anti-SMARCA2/BRM antibody, 100 μg/ml, ab223735) was added at final concentration of 1 ug/mi diluted in 1% o Blocking buffer and shaken for 1 hour at R^†, 600 rpm. The MSD plate was washed three times with 150 ul/well of TBST and 25 ul/well of SULFO-TAG anti-rabbit antibody (MSD, R32AB-1) was added at final concentration of 1 μg/ml diluted in […] Blocking buffer and shaken for 1 hour at R^†, 600 rpm. The MSD plate was washed three times with 150 ul/well of TBST and 150 ul/well of 2×MSD reading buffer diluted from 4× (MSD, R92TC-2) with water was added. Lastly, the MSD instrument was read.
The letter codes for SMARCA2 degradation potency (DC50) include: A (<100 nM), B (100-500 nM), C (501-1000 nM), and D (>1000 nM). The letter codes for the percentage of SMARCA2 degradation after 24 hours (Dmax % o) include: A (>90% o degradation), B (>70-90% o degradation), C (50-70% o degradation), and D (<50% degradation).

Test [2] has as its target T1, SMARCA2. Kind of test: SMARCA2 Western blot MV4-11 degradation. Conditions: 24 h; for Dmax: MV4-11, MV4-11 cells, read-out: SMARCA2 MSD MV411 degradation 24 h: average Dmax %; for DC50: MV4-11 cells, read-out: SMARCA2 MSD MV411 degradation 24 h: Mean external-Abs DC50. On the set-up: SMARCA2 and SMARCA4 protein degradation in MV4-11 cells; endogenous in cells; host or cells: MV4-11. On the procedure:
(§1) Example 54. SMARCA2 and SMARCA 4 Western Blot MV4-11 Degradation
(§2) Cells were seeded into 6-well plates (MV4-11: 4×10^6 cells/well/1 ml) and 1 ml of 2× compound solution was added into the well to make the final concentration and the plates were mixed well and incubated for 24 hours (No cytotoxicity was observed). The cell were collected with media and spun at 3000 rpm for 5 minutes. The supernatant was aspirated and the well and the cells were washed with cold PBS once and combined for centrifugation again; the supernatant aspirated again. 200 ul pre-chilled RIPA lysis buffer (Boston BioProducts BP-115D) with protease/phosphatase inhibitor (Roche 05892791001/Roche 04906837001) was directly added into the tube to lyze the cells for 20 minutes on ice. The cell lysate were collected into EP tubes and spun at 13000 rpm for 20 minutes and 72 ul supernatant was transferred to a fresh EP tube containing 18 ul of 5× loading buffer (Beyotime Bio P0015) to make the loading samples. The samples were heated to 100° C. for 10 minutes and cooled to RT and microcentrifuged. 20 ul of samples were loaded onto SDS-PAGE gel (Novex, WG1402BOX) and the gel was run at 80 V for 20 minutes and 120 V for 1.5 hours. The samples were electrotransfer to a NC membrane using wet-transfer method with 250 mA for 2.5 hours. The membrane was blocked with LICOR blocking buffer (LI-COR, 927-50000) for 1 hour. The membrane was washed three times with TBST (CST #9997S), 5 minutes each. Incubation was performed with primary antibody prepared in blocking buffer with 0.1% Tween-20 (Solarbio, P8220) at 4° C. overnight (Anti-SMARCA2/BRM antibody (ab15597) 1:500; Anti-BRG1 antibody [EPR3912] (ab108318) 1:1000; Rabbit anti-Baf180 antibody [EPR15860] (Abcam, ab196022) 1:1000; mouse anti-beta-Actin (8H10D10) (CST #3700) 1:10000). The membrane was washed three times with TBST, 5 minutes each. Incubation with secondary antibody was performed for 1 hour at RT (anti-rabbit IgG (Licor, 926-32211) 1:5000; anti-mouse IgG (LI-COR, 926-68070) 1:5000). The membrane was washed three times with TBST, 5 minutes each and lastly the LiCOR was read.
(§3) The letter codes for SMARCA degradation potency (DC50) include: A (<100 nM), B (100-500 nM), C (501-1000 nM), and D (>1000 nM). The letter codes for the percentage of SMARCA degradation after 24 hours (Dmax %) include: A (>90% degradation), B (>70-90% degradation), C (50-70% degradation), and D (<50% degradation).
For orientation: A western blot detects proteins with antibodies after separation by electrophoresis.

A further test concerns the target T2, SMARCA4 (Homo sapiens, UniProt P51532).
T2 construct: SMARCA2 and SMARCA4 protein degradation in MV4-11 cells; endogenous in cells; host or cells: MV4-11
Kind of test: SMARCA4 Western blot MV4-11 degradation. Conditions: MV4-11 cells, 24 h; read-out: SMARCA4 MSD MV411 degradation 24 h: Mean external-Abs DC50. The protocol:
as §1, §2, §3

These results are taken from patent US12606568B2, “SMARCA degraders and uses thereof” (Kymera Therapeutics, Inc., priority 2020, dated 2026).

T1 sequence (P51531 whole entry): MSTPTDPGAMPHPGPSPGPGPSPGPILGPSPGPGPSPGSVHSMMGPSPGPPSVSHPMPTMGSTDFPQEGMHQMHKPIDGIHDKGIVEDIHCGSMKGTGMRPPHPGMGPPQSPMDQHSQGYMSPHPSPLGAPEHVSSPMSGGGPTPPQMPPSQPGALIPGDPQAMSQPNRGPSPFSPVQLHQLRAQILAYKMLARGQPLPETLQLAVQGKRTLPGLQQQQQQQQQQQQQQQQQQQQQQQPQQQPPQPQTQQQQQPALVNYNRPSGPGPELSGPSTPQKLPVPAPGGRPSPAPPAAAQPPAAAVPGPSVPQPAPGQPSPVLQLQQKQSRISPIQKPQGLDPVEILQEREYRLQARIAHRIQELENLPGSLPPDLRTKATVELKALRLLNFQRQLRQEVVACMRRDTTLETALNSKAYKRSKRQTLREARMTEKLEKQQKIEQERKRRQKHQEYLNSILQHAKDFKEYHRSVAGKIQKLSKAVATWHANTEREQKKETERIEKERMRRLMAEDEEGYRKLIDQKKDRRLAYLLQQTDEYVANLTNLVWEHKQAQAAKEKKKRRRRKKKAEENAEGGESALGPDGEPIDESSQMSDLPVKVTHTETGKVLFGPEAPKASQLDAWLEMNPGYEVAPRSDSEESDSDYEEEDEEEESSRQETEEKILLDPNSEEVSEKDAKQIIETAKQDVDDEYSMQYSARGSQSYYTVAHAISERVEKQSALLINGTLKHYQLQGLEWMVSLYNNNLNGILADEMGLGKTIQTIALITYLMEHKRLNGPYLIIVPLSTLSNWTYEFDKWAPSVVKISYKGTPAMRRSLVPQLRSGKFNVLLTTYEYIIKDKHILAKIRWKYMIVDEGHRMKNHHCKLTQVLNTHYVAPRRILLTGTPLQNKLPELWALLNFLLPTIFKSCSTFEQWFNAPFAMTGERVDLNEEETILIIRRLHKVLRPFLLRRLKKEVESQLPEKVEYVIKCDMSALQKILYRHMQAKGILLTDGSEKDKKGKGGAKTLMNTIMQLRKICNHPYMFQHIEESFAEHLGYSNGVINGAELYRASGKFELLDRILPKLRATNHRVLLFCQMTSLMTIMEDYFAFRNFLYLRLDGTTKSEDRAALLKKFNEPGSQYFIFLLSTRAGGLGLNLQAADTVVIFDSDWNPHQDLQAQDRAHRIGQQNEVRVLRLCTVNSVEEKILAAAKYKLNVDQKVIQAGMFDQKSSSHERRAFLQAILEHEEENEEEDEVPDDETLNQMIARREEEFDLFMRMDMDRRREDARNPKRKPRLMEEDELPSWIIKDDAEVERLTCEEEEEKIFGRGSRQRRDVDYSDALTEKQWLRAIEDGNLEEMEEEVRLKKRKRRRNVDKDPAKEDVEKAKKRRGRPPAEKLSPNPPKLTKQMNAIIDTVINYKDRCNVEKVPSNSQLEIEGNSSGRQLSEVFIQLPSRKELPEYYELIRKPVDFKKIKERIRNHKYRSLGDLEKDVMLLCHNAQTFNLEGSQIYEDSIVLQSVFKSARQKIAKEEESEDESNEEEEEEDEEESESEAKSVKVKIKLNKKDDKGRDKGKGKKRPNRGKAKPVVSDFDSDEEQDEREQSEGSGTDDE
T2 sequence (P51532 whole entry): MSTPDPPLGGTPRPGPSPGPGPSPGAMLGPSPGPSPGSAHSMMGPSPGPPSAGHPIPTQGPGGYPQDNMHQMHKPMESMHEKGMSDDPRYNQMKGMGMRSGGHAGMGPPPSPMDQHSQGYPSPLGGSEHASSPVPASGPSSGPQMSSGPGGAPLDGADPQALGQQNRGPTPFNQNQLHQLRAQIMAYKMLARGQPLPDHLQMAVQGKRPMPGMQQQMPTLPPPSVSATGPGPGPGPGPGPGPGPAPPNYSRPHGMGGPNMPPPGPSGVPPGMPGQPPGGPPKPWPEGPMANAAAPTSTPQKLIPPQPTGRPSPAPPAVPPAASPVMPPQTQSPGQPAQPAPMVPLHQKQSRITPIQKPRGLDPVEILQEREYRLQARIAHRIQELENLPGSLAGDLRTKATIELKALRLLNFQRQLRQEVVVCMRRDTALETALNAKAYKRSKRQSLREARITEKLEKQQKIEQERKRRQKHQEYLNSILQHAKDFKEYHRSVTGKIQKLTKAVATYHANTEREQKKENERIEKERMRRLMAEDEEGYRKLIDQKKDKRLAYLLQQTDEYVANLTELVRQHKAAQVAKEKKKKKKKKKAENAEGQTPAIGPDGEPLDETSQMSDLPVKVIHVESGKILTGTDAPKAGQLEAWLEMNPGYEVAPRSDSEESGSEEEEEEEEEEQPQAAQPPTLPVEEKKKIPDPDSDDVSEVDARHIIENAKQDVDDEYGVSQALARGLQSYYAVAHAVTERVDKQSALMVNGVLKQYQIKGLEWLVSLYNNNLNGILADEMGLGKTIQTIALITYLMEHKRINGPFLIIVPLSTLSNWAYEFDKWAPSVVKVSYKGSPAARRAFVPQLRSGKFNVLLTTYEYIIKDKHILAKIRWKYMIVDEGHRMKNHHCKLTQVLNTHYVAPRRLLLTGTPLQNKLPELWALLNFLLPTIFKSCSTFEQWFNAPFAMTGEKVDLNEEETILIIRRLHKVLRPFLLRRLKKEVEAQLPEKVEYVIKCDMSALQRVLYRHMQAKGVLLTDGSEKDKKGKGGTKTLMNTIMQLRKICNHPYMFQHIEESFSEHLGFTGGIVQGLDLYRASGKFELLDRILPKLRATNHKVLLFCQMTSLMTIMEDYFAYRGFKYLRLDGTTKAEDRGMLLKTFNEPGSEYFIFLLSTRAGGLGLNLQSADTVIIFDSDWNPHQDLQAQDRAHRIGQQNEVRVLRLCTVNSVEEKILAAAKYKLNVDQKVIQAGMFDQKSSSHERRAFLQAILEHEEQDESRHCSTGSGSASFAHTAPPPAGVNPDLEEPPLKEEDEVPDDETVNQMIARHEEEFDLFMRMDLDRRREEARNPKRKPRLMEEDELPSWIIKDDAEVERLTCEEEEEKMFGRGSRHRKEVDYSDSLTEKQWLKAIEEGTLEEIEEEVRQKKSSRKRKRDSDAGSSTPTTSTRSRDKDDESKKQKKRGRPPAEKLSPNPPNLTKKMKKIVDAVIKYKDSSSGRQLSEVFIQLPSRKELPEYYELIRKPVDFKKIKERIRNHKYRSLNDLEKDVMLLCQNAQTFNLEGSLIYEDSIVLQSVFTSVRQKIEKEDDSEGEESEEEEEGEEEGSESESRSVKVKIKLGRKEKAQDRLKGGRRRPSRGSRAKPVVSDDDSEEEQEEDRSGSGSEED

For `Cc1ncsc1-c1ccc(CNC(=O)[C@@H]2C[C@@H](O)CN2C(=O)C(c2cc(O[C@H]3CC[C@H](N4CCC(c5cnc(N6C7CCC6CN(c6cc(-c8ccccc8O)nnc6N)C7)nc5)CC4)CC3)no2)C(C)C)cc1` (stereo partly drawn) [I-17, (2S,4R)-1-(2-(3-(((1r,4S)-4-(4-(2-(3-(3-amino-6-(2-hydroxyphenyl)pyridazin-4-yl)-3,8-diazabicyclo[3.2.1]octan-8-yl)pyrimidin-5-yl)piperidin-1-yl)cyclohexyl)oxy)isoxazol-5-yl)-3-methylbutanoyl)-4-hydroxy-N-(4-(4-methylthiazol-5-yl)benzyl)pyrrolidine-2-carboxamide], the Dmax on SMARCA2 [1] and at SMARCA2 [2] was greater than 90% throughout. Further, the DC50 at SMARCA2 [1] and on SMARCA2 [2] was less than 100 nM in each case.
On to `Cc1ncsc1-c1ccc(CNC(=O)[C@@H]2C[C@@H](O)CN2C(=O)C(c2cc(O[C@H]3CC[C@@H](N4CCC(c5cnc(N6C7CCC6CN(c6cc(-c8ccccc8O)nnc6N)C7)nc5)CC4)CC3)no2)C(C)C)cc1` (stereo partly drawn) [I-18, (2S,4R)-1-(2-(3-(((1s,4R)-4-(4-(2-(3-(3-amino-6-(2-hydroxyphenyl)pyridazin-4-yl)-3,8-diazabicyclo[3.2.1]octan-8-yl)pyrimidin-5-yl)piperidin-1-yl)cyclohexyl)oxy)isoxazol-5-yl)-3-methylbutanoyl)-4-hydroxy-N-(4-(4-methylthiazol-5-yl)benzyl)pyrrolidine-2-carboxamide], for which the Dmax at SMARCA2 [1] and at SMARCA2 [2] was greater than 90% each time. In addition, the DC50 at SMARCA2 [1] and at SMARCA2 [2] was less than 100 nM in each case.
`Cc1ncsc1-c1ccc(CNC(=O)[C@@H]2C[C@@H](O)CN2C(=O)C(c2cc([C@H]3CC[C@@H](N4CCC(c5cnc(N6C7CCC6CN(c6cc(-c8ccccc8O)nnc6N)C7)nc5)CC4)CC3)no2)C(C)C)cc1` (stereo partly drawn) [I-19, (2S,4R)-1-(2-(3-(4-(4-(2-(3-(3-amino-6-(2-hydroxyphenyl)pyridazin-4-yl)-3,8-diazabicyclo[3.2.1]octan-8-yl)pyrimidin-5-yl)piperidin-1-yl)cyclohexyl)isoxazol-5-yl)-3-methylbutanoyl)-4-hydroxy-N-(4-(4-methylthiazol-5-yl)benzyl)pyrrolidine-2-carboxamide]: the Dmax at SMARCA2 [1] and on SMARCA2 [2] was greater than 90% each time. Further, the DC50 on SMARCA2 [1] and on SMARCA2 [2] was less than 100 nM in each case.
Take `Cc1ncsc1-c1ccc(CNC(=O)[C@@H]2C[C@@H](O)CN2C(=O)C(c2cc([C@H]3CC[C@H](N4CCC(c5cnc(N6C7CCC6CN(c6cc(-c8ccccc8O)nnc6N)C7)nc5)CC4)CC3)no2)C(C)C)cc1` (stereo partly drawn) [I-20, (2S,4R)-1-(2-(3-(4-(4-(2-(3-(3-amino-6-(2-hydroxyphenyl)pyridazin-4-yl)-3,8-diazabicyclo[3.2.1]octan-8-yl)pyrimidin-5-yl)piperidin-1-yl)cyclohexyl)isoxazol-5-yl)-3-methylbutanoyl)-4-hydroxy-N-(4-(4-methylthiazol-5-yl)benzyl)pyrrolidine-2-carboxamide]: on SMARCA2 [1], the Dmax (usually the greatest extent of degradation seen) is greater than 90% and the DC50 – broadly, the concentration giving 50% degradation – was less than 100 nM.
Regarding `Cc1ncsc1-c1cnc(CNC(=O)[C@@H]2C[C@@H](O)CN2C(=O)[C@@H](NC(=O)[C@H]2CC3(C2)C[C@H](N2CCC(c4ccc(N5C6CCC5CN(c5cc(-c7ccccc7O)nnc5N)C6)cc4)CC2)C3)C(C)(C)C)nc1` (stereo partly drawn) [I-26, (2S,4R)-1-((2S)-2-(6-(4-(4-(3-(3-amino-6-(2-hydroxyphenyl)pyridazin-4-yl)-3,8-diazabicyclo [3.2.1]octan-8-yl)phenyl)piperidin-1-yl)spiro[3.3]heptane-2-carboxamido)-3,3-dimethylbutanoyl)-4-hydroxy-N-((5-(4-methylthiazol-5-yl)pyrimidin-2-yl)methyl)pyrrolidine-2-carboxamide], the DC50 on SMARCA2 [1] and at SMARCA4 was greater than 1000 nM throughout.
Take `Cc1ncsc1-c1cnc(CNC(=O)[C@@H]2C[C@@H](O)CN2C(=O)[C@@H](NC(=O)[C@H]2CC3(C2)C[C@H](N2CCC(c4ccc(N5C6CCC5CN(c5cc(-c7ccccc7O)nnc5N)C6)cc4)CC2)C3)C(C)(C)C)cn1` (stereo partly drawn) [I-30, (2S,4R)-1-((2S)-2-(6-(4-(4-(3-(3-amino-6-(2-hydroxyphenyl)pyridazin-4-yl)-3,8-diazabicyclo[3.2.1]octan-8-yl)phenyl)piperidin-1-yl)spiro[3.3]heptane-2-carboxamido)-3,3-dimethylbutanoyl)-4-hydroxy-N-((5-(4-methylthiazol-5-yl)pyrazin-2-yl)methyl)pyrrolidine-2-carboxamide]: the DC50 at SMARCA2 [1] and on SMARCA4 was greater than 1000 nM throughout.
Consider `Cc1nccn1-c1ccc(CNC(=O)[C@@H]2C[C@@H](O)CN2C(=O)[C@@H](NC(=O)[C@H]2CC3(C2)C[C@H](N2CCC(c4cnc(N5C6CCC5CN(c5cc(-c7ccccc7O)nnc5N)C6)nc4)CC2)C3)C(C)(C)C)cc1` (stereo partly drawn) [I-34, (2S,4R)-1-((2S)-2-(6-(4-(2-(3-(3-amino-6-(2-hydroxyphenyl)pyridazin-4-yl)-3,8-diazabicyclo[3.2.1]octan-8-yl)pyrimidin-5-yl)piperidin-1-yl)spiro[3.3]heptane-2-carboxamido)-3,3-dimethylbutanoyl)-4-hydroxy-N-(4-(2-methyl-1H-imidazol-1-yl)benzyl-)pyrrolidine-2-carboxamide], for which the DC50 was greater than 1000 nM on SMARCA4 and 100 to 500 nM on SMARCA2 [2].
Consider `Cc1ncsc1-c1ccc(CNC(=O)[C@@H]2C[C@@H](O)CN2C(=O)C(c2cc(N3CCC(CCCN4CCC(c5cnc(N6C7CCC6CN(c6cc(-c8ccccc8O)nnc6N)C7)nc5)CC4)CC3)no2)C(C)C)cc1` (stereo partly drawn) [I-64], for which, on SMARCA2 [1], the Dmax was greater than 90% and the 50% degradation concentration (DC50) is less than 100 nM. For the same compound, on SMARCA2 [2], the Dmax is greater than 90% and the DC50 was less than 100 nM.
